Data set [1] has as its system MCF7. Nature of the data set: Antiproliferative activity against human MCF7 cells assessed as inhibition of cell growth. It counts as functional, cell-based.
The nature of data set [2]: Cytotoxicity against human HEK293 cells assessed as inhibition of cell growth. It counts as toxicity, cell-based.
The test system of data set [3] is HeLa. The experiment in a line: Antiproliferative activity against human HeLa cells assessed as inhibition of cell growth. It counts as functional, cell-based.
Data set [4] relates to A549. The experiment in a line: Antiproliferative activity against human A549 cells assessed as inhibition of cell growth. It counts as functional, cell-based.
Data set [5] has as its system Hep 3B2. The experiment in a line: Antiproliferative activity against human Hep3B cells measured after 48 hrs by MTT assay. It counts as functional, cell-based. For orientation: Tetrazolium assays rely on reduction of a dye to a coloured formazan, in cell work by metabolically active cells.
Data set [6] relates to A498. The experiment in a line: Cytotoxicity against human A498 cells measured after 3 days by MTT assay. As to conditions: A498, 72 h. It counts as functional, cell-based.
The subject of data set [7] is SK-OV-3. The experiment in a line: Antiproliferative activity against human SK-OV-3 cells assessed as inhibition of cell growth. It counts as functional, cell-based.
The subject of data set [8] is T-24. The experiment in a line: Antiproliferative activity against human T24 cells assessed as inhibition of cell growth. It counts as functional, cell-based.
For data set [9], the system named is HepG2. Nature of the data set: Antiproliferative activity against human HepG2 cells assessed as inhibition of cell growth. It counts as functional, cell-based.
Data set [10] deals with SK-OV-3. Nature of the data set: Cytotoxicity against human SK-OV-3 cells measured after 3 days by MTT assay. It counts as functional, cell-based. As to conditions: SK-OV-3, 72 h.
Data set [11] relates to MCF7. The experiment in a line: Cytotoxicity against human MCF7 cells measured after 3 days by MTT assay. It counts as functional, cell-based. The following applies: MCF7, 72 h.
For data set [12], the system named is A549. Nature of the data set: Antiproliferative activity against human A549 cells assessed as cell growth inhibition. It counts as functional, cell-based.
Data set [13] relates to HeLa. Nature of the data set: Antiproliferative activity against human HeLa cells assessed as cell growth inhibition. It counts as functional, cell-based.
The nature of data set [14]: Antiproliferative activity against human HL7702 cells assessed as inhibition of cell growth. As to conditions: HL7702 (L02) cells. It counts as toxicity, cell-based.
A further data set deals with M14. The experiment in a line: Growth inhibition of human M14 cells assessed as reduction in cell viability. It counts as functional.
The subject of the next data set is DU-145. Nature of the data set: Growth inhibition of human DU-145 cells assessed as reduction in cell viability. It counts as functional.
For data set [15], the system named is K562. The experiment in a line: Anticancer activity against human K562 cells measured after 48 hrs. It counts as functional, cell-based. As to conditions: K562, 48 h.
Data set [16] relates to HepG2. The experiment in a line: Antiproliferative activity against human HepG2 cells measured after 48 hrs by MTT assay. It counts as functional, cell-based. As to conditions: HepG2, 48 h.
The subject of another data set is HL-60. The experiment in a line: Anticancer activity against human HL-60 cells measured after 48 hrs. It counts as functional, cell-based. The following applies: HL-60, 48 h.
For data set [17], the system named is T-24. Nature of the data set: Antiproliferative activity against human T24 cells measured after 48 hrs by MTT assay. It counts as functional, cell-based. The following applies: T-24, 48 h.
In the next data set the test system is U-251. Nature of the data set: Growth inhibition of human U-251 cells assessed as reduction in cell viability. It counts as functional.
In a further data set the test system is MGC-803. Nature of the data set: Antiproliferative activity against human MGC-803 cells measured after 48 hrs by MTT assay. It counts as functional, cell-based. The following applies: MGC-803, 48 h.
The test system of data set [18] is NCI/ADR-RES. Nature of the data set: Growth inhibition of human MCF7ADR cells assessed as reduction in cell viability. It counts as functional.
The next data set relates to MOLT-4. Nature of the data set: Anticancer activity against human MOLT-4 cells measured after 48 hrs. It counts as functional, cell-based. The following applies: MOLT-4, 48 h.
The subject of another data set is SW-620. Nature of the data set: Growth inhibition of human SW620 cells assessed as reduction in cell viability. It counts as functional.
Another data set concerns Bel-7402. Nature of the data set: Antiproliferative activity against human Bel-7402 cells measured after 48 hrs by MTT assay. It counts as functional, cell-based. As to conditions: Bel-7402, 48 h.
Data set [19] is described as follows: Antiproliferative activity against human HL7702 cells measured after 48 hrs by MTT assay. It counts as toxicity, cell-based. The following applies: HL7702 (L02) cells.
The test system of the next data set is NCI-H522. The experiment in a line: Growth inhibition of human NCI-H522 cells assessed as reduction in cell viability. It counts as functional.
In data set [20] the test system is MCF7. Nature of the data set: Antiproliferative activity against human MCF7 cells. It counts as functional, cell-based.
The test system of data set [21] is NCI/ADR-RES. The experiment in a line: Antiproliferative activity against human MCF7ADR cells. It counts as functional, cell-based.
For data set [22], the system named is K562. Nature of the data set: Antiproliferative activity against human K562 cells incubated for 48 hrs. It counts as functional, cell-based. The following applies: K562, 48 h.
Data set [23] relates to HeLa. The experiment in a line: Antiproliferative activity against human HeLa cells incubated for 48 hrs. It counts as functional, cell-based.
The next data set relates to CT26. Nature of the data set: Antiproliferative activity against mouse CT26 cells incubated for 48 hrs. It counts as functional, cell-based. As to conditions: CT26, 48 h.
Data set [24] concerns Hep 3B2. Nature of the data set: Anticancer activity against human Hep3B cells measured after 48 hrs. It counts as functional, cell-based.
The next data set relates to B16-F10. The experiment in a line: Antiproliferative activity against mouse B16-F10 cells. It counts as functional, cell-based.
In data set [25] the test system is HepG2. Nature of the data set: Antiproliferative activity against human HepG2 cells incubated by 48 hrs by MTT assay. It counts as functional, cell-based. As to conditions: HepG2, 48 h.
A short description of data set [26]: Antiproliferative activity against human LX-2 cells. It counts as toxicity, cell-based.
Data set [27] concerns A549. Nature of the data set: Antiproliferative activity against human A549 cells incubated by 48 hrs by MTT assay. The following applies: A549, 48 h. It counts as functional, cell-based.
The subject of data set [28] is HeLa. Nature of the data set: Antiproliferative activity against human HeLa cells. It counts as functional, cell-based.
Data set [29] relates to K562. The experiment in a line: Antiproliferative activity against human K562 cells incubated by 48 hrs by MTT assay. It counts as functional, cell-based. The following applies: K562, 48 h.
A further data set deals with PC-3. Nature of the data set: Antiproliferative activity against human PC-3 cells incubated by 48 hrs by MTT assay. It counts as functional, cell-based. The following applies: PC-3, 48 h.
The test system of data set [30] is A498. The experiment in a line: Growth inhibition of human A498 cells assessed as reduction in cell viability. It counts as functional.
In data set [31] the test system is SK-OV-3. Nature of the data set: Growth inhibition of human SK-OV-3 cells assessed as reduction in cell viability. It counts as functional.

Molecules are shown by their SMILES.

Consider `O=C1C2C=CC=CC2=NC2/C(=N\Nc3nc(-c4ccc(Br)cc4)cs3)c3ccccc3N12` (stereo not drawn), for which the concentration for half-maximal inhibition (IC50) – broadly, the concentration needed to halve the response being measured – in the data set with MCF7 [1] amounted to 12.7 µM; in [2] it was 73.3 µM; with HeLa [3] it was 19.3 µM; in the data set with A549 [4] it was 16.9 µM.

Regarding `O=C1c2cc(I)ccc2-n2c1nc1ccccc1c2=O`, the IC50 was determined as 2.4 µM with Hep 3B2 [5]; 1.86 µM with A498 [6]; 79.1 µM in the data set with SK-OV-3 [7]; 85.2 µM in the data set on T-24 [8]; 88.6 µM with HepG2 [9]; 0.65 µM in the data set with SK-OV-3 [10]. In addition, the IC50 was 1.5 µM in the data set with MCF7 [11], above 150 µM in the data set on A549 [12], above 150 µM in the data set on HeLa [13] and 94.1 µM in data set [14].

Regarding `O=C1c2cc(Br)ccc2-n2c1nc1ccccc1c2=O`, the IC50 with Hep 3B2 [5] worked out at 2 µM; in the data set on SK-OV-3 [7] it was 89.6 µM; in the data set with K562 [15], 5 µM; with HepG2 [16], 99.6 µM; with T-24 [8], 94.1 µM; in the data set with HL-60, 2 µM. In addition, the IC50 in the data set with T-24 [17] was 15.1 µM; with MGC-803, 59.1 µM; in the data set with HepG2 [9], 89.6 µM; in the data set with MOLT-4, 8 µM; in the data set with Bel-7402 it was 27.2 µM; with A549 [12], 89.6 µM. In addition, the IC50 with HeLa [13] was above 150 µM; in data set [14], 50.1 µM. Besides, the GI50 (usually the concentration giving 50% growth inhibition) with M14 was 5 µM; with DU-145 it was 2 µM; in the data set with U-251, 0.7 µM; in the data set on NCI/ADR-RES [18] it was 5 µM; with SW-620, 4.8 µM; in the data set with NCI-H522, 5 µM. Besides, the IC50 at 48 h in data set [19] came to 50.1 µM.

`O=c1c2ccccc2nc2n1-c1ccccc1/C2=N\O`: the IC50 worked out at 82.1 µM with MCF7 [20] and 75.3 µM in the data set with NCI/ADR-RES [21].

For the compound `C=C[C@@H]1[C@@]2(c3ccccc3)[C@H]3CCCN3[C@@]3(c4ccccc4-n4c3nc3ccccc3c4=O)[C@@]12c1ccccc1`, the IC50 in the data set on K562 [22] was above 50 µM; in the data set on HeLa [23], above 50 µM; in the data set with CT26, 10 µM.

On to `O=C(O)CNC(=O)[C@H]1N[C@@]2(c3ccccc3-n3c2nc2ccccc2c3=O)[C@@]2(c3ccccc3)[C@H](c3ccccc3)[C@@]12c1ccccc1`, for which the half-maximal inhibitory concentration (IC50) in the data set on K562 [22] is above 50 µM; in the data set on HeLa [23] it was 33 µM; with CT26 it was 10 µM.

On to `O=C1c2cc([N+](=O)[O-])ccc2-n2c1nc1ccccc1c2=O`, for which the IC50 in the data set on Hep 3B2 [24] amounted to 1.4 µM; in the data set with B16-F10 it was 0.49 µM; in the data set on HepG2 [25] it was 7.89 µM; in data set [26] it was 0.83 µM; with A549 [27], 6.88 µM; in the data set with HeLa [28], 0.34 µM. For the same compound, the IC50 with K562 [29] came to 8.05 µM; with PC-3 it was 11.8 µM. In addition, the concentration for 50% growth inhibition (GI50) is 0.8 µM with M14; 0.15 µM with DU-145; above 100 µM in the data set with U-251; 0.7 µM in the data set with NCI/ADR-RES [18]; 4 µM in the data set on SW-620; 0.7 µM in the data set with NCI-H522. Moreover, the GI50 with A498 [30] is 3 µM; in the data set with SK-OV-3 [31] it was 5 µM.

Turning to `N#Cc1ccc(-c2csc(N/N=C3/c4ccccc4N4C(=O)C5C=CC=CC5=NC34)n2)cc1` (stereo not drawn), the IC50 was determined as 6.05 µM in the data set with MCF7 [1], 92.3 µM in [2], 7.08 µM in the data set on HeLa [3] and 8.18 µM in the data set with A549 [4].

The values are drawn from ChEMBL document CHEMBL5532682, “Recent advances of tryptanthrin and its derivatives as potential anticancer agents” (RSC Med Chem, 2024).
